Experimental data reported in ChEMBL document CHEMBL1148570, “Acryloylamino-salicylanilides as EGFR PTK inhibitors” (Bioorg Med Chem Lett, 2006).

Key:
[1] = target: Epidermal growth factor receptor (Homo sapiens) (UniProt P00533); experiment: Inhibition of EGFR PTK at 10 uM
[2] = target: Epidermal growth factor receptor (Homo sapiens) (UniProt P00533); experiment: Inhibition of EGFR PTK at 1 uM
[3] = target: Epidermal growth factor receptor (Homo sapiens) (UniProt P00533); experiment: Inhibition of EGFR PTK at 0.1 uM
[4] = target: Epidermal growth factor receptor (Homo sapiens) (UniProt P00533); experiment: Inhibition of EGFR PTK at 0.01 uM

Sequence of Epidermal growth factor receptor (Homo sapiens) (P00533 whole entry): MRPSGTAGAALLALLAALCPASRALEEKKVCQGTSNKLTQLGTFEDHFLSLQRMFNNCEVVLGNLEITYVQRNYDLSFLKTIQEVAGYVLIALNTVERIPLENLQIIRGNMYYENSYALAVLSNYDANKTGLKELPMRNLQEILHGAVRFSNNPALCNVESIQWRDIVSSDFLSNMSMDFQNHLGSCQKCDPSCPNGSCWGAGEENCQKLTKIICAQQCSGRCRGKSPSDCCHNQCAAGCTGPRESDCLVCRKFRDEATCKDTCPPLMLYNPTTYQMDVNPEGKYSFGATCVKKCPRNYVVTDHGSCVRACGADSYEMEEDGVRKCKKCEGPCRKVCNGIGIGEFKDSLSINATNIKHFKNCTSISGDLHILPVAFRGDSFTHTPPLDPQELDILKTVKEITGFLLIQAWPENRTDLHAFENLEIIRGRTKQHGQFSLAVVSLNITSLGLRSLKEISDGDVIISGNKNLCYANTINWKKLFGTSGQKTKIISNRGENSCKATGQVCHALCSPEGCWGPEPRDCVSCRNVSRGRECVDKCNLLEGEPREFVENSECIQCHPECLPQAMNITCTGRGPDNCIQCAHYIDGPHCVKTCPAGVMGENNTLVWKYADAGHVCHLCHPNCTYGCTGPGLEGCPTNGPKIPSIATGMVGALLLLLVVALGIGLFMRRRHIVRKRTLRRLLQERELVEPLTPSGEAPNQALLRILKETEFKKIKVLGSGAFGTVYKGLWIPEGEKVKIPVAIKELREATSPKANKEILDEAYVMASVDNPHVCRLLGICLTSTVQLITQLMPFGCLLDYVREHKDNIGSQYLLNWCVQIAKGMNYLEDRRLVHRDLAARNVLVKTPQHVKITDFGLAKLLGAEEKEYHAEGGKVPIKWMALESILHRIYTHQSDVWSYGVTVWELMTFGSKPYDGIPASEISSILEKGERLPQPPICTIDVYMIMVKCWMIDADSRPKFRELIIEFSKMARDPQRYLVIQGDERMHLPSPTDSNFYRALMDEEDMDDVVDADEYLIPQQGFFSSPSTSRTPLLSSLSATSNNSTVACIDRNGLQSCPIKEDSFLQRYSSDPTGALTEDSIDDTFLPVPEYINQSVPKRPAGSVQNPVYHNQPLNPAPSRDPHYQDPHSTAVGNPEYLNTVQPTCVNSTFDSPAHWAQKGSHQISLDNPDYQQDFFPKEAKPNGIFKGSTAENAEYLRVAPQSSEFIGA

SMILES | inhibition [1] [%] | inhibition [2] [%] | inhibition [3] [%] | inhibition [4] [%]
C=CC(=O)Nc1ccc(C(=O)Nc2cccc(C(=O)N3CCCC3)c2)c(O)c1 | 91 | 88.6 | 84.2 | 26
C=CC(=O)Nc1ccc(O)c(C(=O)Nc2cccc(Br)c2)c1 | 93 | 90.6 | 89.5 | 52.9
C=CC(=O)Nc1ccc(C(=O)Nc2cccc(C(=O)N(CC)CC)c2)c(O)c1 | 63.9 | 54.4 | 40.4 | 14.1
C=CC(=O)Nc1ccc(C(=O)Nc2cccc(Oc3ccccc3)c2)c(OC)c1 | 1.59 | – | – | –
C=CC(=O)Nc1ccc(C(=O)Nc2ccc(Oc3ccccc3)cc2)c(O)c1 | 62.2 | 28.1 | 0.8 | 0
C=CC(=O)Nc1ccc(C(=O)Nc2cccc(C(O)c3ccccc3)c2)c(O)c1 (configuration not stated) | 93.5 | 91.7 | 84.8 | 49.3
CCC(=O)Nc1ccc(C(=O)Nc2cccc(C(=O)N(CC)CC)c2)c(O)c1 | 46.6 | – | – | –
C=CC(=O)Nc1ccc(C(=O)Nc2cccc(Cl)c2)c(O)c1 | 62.6 | 46.3 | 21.6 | –
C=CC(=O)Nc1ccc(C(=O)Nc2cccc(Oc3ccccc3)c2)c(O)c1 | 91.2 | 89.3 | 86.6 | 18.8
CCC(=O)Nc1ccc(C(=O)Nc2ccc(Oc3ccccc3)cc2)c(O)c1 | 48.5 | – | – | –
C=CC(=O)Nc1ccc(C(=O)Nc2cccc(C(O)c3ccccc3)c2)c(OC)c1 (configuration not stated) | 5.84 | – | – | –
C=CC(=O)Nc1ccc(C(=O)Nc2cccc(Br)c2)c(O)c1 | 91.3 | 89.9 | 88.2 | 76
C=CC(=O)Nc1ccc(O)c(C(=O)Nc2cccc(Cl)c2)c1 | 73.1 | 38.3 | 23.3 | –
C=CC(=O)Nc1ccc(C(=O)Nc2cccc(C(=O)N3CCCCC3)c2)c(O)c1 | 91.9 | 91.2 | 88 | 75.1
